Source: patent EP0021229A1, “Arylazo compounds, their preparation and their use” (priority 1979, dated 1981)

Molecular target: T1, prostaglandin-15-dehydrogenase (Homo sapiens, UniProt P15428)
T1 construct: from tissue
T1 sequence (P15428 1-266): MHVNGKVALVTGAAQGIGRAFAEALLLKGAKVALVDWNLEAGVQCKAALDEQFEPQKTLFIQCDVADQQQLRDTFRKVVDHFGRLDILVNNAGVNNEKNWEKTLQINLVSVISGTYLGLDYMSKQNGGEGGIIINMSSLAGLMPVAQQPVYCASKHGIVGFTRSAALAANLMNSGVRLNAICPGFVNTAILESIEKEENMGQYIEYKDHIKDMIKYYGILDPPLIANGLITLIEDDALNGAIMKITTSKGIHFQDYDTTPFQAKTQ
Experiment: Inhibition of prostaglandin F2a inactivation in cell-free organ preparations (Hoult and Moore)
Assay type: biochemical
Conditions: in vitro, radioactive prostaglandin F2a incubated with cellfree preparations of different organs; compared to sulfasalazine (compound A)
Description: Radioactive prostaglandin F2a was incubated with cellfree preparations of different organs (containing prostaglandin-15-dehydrogenase) according to Hoult and Moore, British Journal of Pharmacology, Vol. 61 (1977), p. 615. After a suitable time the prostaglandins were extracted and separated by chromatography. Then the amount of remaining prostaglandin F 2a was compared with the amounts of metabolites. The inhibiting effect was obtained by the addition of the compounds according to the invention during the incubation and comparison with control experiments without such addition. The results may be represented either as a concentration giving 50% inhibition of the prostaglandin inactivation, or as an inhibition in per cen at a certain concentration of the studied compound. In the following table the results for some compounds according to the invention are shown compared to the known drug sulfasalazine.

Row | Compound | activity (inhibition of the prostaglandin inactivation) relative to the known compound A [times] | activity (inhibition of the prostaglandin inactivation) compared with compound A, in words
1 | O=C(O)Cc1cc(N=Nc2ccc(S(=O)(=O)Nc3ccccn3)cc2)ccc1O [compound B] | 50 | –
2 | O=C(O)Cc1cc(N=Nc2ccccc2)ccc1O [C, 2-hydroxy-5-phenylazo-benzeneacetic acid] | – | significantly more active than compound A
